In publication PMC7233170 (Bioorganic chemistry, 2020):
Like-named read-outs stand apart in the source and are kept apart here.

Legend:
[1] = biological target: T1, sEH (Homo sapiens, UniProt P34913); assay: sEH inhibitory activity; settings: for Inhibition of compounds against sEH, 50 μM (%): compound at 50 μM
T1 sequence (P34913 1-555): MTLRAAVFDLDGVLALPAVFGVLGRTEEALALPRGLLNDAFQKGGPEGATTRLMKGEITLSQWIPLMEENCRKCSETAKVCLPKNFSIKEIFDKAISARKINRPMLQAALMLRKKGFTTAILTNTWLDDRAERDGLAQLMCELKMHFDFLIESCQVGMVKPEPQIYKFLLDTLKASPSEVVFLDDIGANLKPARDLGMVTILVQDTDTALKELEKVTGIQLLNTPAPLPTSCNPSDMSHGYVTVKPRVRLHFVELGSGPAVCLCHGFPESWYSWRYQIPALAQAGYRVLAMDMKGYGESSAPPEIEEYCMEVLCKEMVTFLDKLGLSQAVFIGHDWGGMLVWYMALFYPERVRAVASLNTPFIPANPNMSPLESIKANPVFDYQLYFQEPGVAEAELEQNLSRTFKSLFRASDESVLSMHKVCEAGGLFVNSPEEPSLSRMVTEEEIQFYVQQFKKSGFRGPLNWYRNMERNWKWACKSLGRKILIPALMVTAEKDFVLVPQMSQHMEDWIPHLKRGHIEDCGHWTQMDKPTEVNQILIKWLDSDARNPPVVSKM

[2] = biological target: T1, sEH; assay: Inhibitory kinetic analysis
[3] = read-out: Inhibition of compounds against sEH, IC50, PHOME 10 μM, 20 min, 37 °C, pH 7.4
[4] = PHOME 10 μM, 20 min, 37 °C, pH 7.4

Molecule | IC50 [1, 3] | Inhibition of compounds against sEH, 50 μM (%) [1, 4] | also measured
C[C@H](C[C@H](O)[C@@H](O)C(C)(C)O)C1=C2C[C@H](O)[C@H]3[C@@]4(C)CCC(=O)C(C)(C)[C@@H]4CC[C@]3(C)[C@@]2(C)CC1 [Compound 2, alisol A] |  |  | IC50 [1]: > 50 µM; inhibition at 50 µM ([1]; pH 7.4, read-out: Inhibition of compounds against sEH, 50 μM (%)): 27.3 ± 2.81%
alisol B 23-acetate [Compound 9] | > 50 µM | 37.63 ± 0.86% | 
C[C@@H]1C[C@@H]([C@@H](O)C(C)(C)O)O[C@H]2C[C@@]3(C)C(=C12)[C@H](O)C[C@H]1[C@@]2(C)CCC(=O)C(C)(C)[C@@H]2CC[C@@]13C [Compound 22, 11-deoxy-12β-hydroxy alisol F] | > 50 µM | 17.96 ± 0.69% | 
COC(=O)C[C@@H](C)C1=C2[C@H](O)C[C@H]3[C@@]4(C)CCC(=O)C(C)(C)[C@@H]4CC[C@]3(C)[C@@]2(C)C[C@@H]1OC [Compound 17, alismanin E] | > 50 µM | 49.44 ± 1.15% | 
CC(C)[C@@H](O)C[C@@H](C)C1=C2C[C@H](O)[C@H]3[C@@]4(C)CCC(=O)C(C)(C)[C@@H]4CC[C@]3(C)[C@@]2(C)CC1 [Compound 1, Alismanin B] | 7.15 ± 1.09 µM | 75.31 ± 2.42% | 
16-oxo-11-anhydro alisol A 23,24-acetonide [Compound 11] | 36.3 ± 4 µM |  | 
25-methoxy alisol F 23-acetate [Compound 20] | > 50 µM | 17.63 ± 0.56% | 
CC(C)(O)C1O[C@](C)(C2=C3C[C@H](O)[C@H]4[C@@]5(C)CCC(=O)C(C)(C)[C@@H]5CC[C@]4(C)[C@@]3(C)CC2=O)CC1O (stereo partly shown) [Compound 7, alismanol O] | > 50 µM | 24.45 ± 1.03% | 
CCOC(C)(C)[C@H](O)[C@@H](O)C[C@@H](C)C1=C2C[C@H](O)[C@H]3[C@@]4(C)CCC(=O)C(C)(C)[C@@H]4CC[C@]3(C)[C@@]2(C)CC1 [Compound 15, 25-O-ethyl alisol A] | 9.57 ± 0.88 µM | 78.66 ± 2.19% | 
COC1CC2(C)C(=C1C(C)CC(O)C(OC(C)=O)C(C)(C)O)C(O)CC1C3(C)CCC(=O)C(C)(C)C3CCC12C (stereo not drawn) [Compound 23, 1-deoxy-12β-hydroxy-16β-methoxy alisol A 24-acetate] | > 50 µM | 16.27 ± 0.72% | 
COC(C[C@@H](C)C1=C2C[C@H](O)[C@H]3[C@@]4(C)CCC(=O)C(C)(C)[C@@H]4CC[C@]3(C)[C@@]2(C)CC1)OC [Compound 3, alismanin D] | 14.8 ± 1.1 µM | 78.54 ± 1.86% | 
C[C@@H]1C[C@@H]([C@@H](O)C(C)(C)O)O[C@H]2C[C@@]3(C)C(=C12)C[C@H](O)[C@H]1[C@@]2(C)CCC(=O)C(C)(C)[C@@H]2CC[C@@]13C [Compound 14, alisol F] | > 50 µM | 18.30 ± 0.35% | 

Second part, led by results:

IC50 [1, 3] | Inhibition of compounds against sEH, 50 μM (%) [1, 4] | Molecule | also measured
22.1 ± 1.4 µM |  | C[C@@H]1C[C@@H]([C@@H](O)C(C)(C)O)O[C@H]2C[C@@]3(C)C(=C12)CC[C@H]1[C@@]2(C)CCC(=O)C(C)(C)[C@@H]2CC[C@@]13C [Compound 13, 11-deoxy alisol F] | 
> 50 µM | 44.42 ± 1.43% | CC(CC(O)C(O)C(C)(C)O)C1=C2C(O)C(O)C3C4(C)CCC(=O)C(C)(C)C4CC(O)C3(C)C2(C)CC1 (stereo not drawn) [Compound 8, 7α,12α-dihydroxyalisol A] | 
> 50 µM | 39.33 ± 0.92% | CC(=O)O[C@H]([C@@H]1C[C@@H](C)C2=C3[C@H](O)C[C@H]4[C@@]5(C)CCC(=O)C(C)(C)[C@@H]5CC[C@]4(C)[C@@]3(C)C[C@@H]2O1)C(C)(C)O [Compound 21, 11-deoxy-12β-hydroxy alisol F 24-acetate] | 
21.4 ± 1.7 µM |  | CC(=O)O[C@H]([C@@H](O)C[C@@H](C)C1=C2C[C@H](O)[C@H]3[C@@]4(C)CCC(=O)C(C)(C)[C@@H]4CC[C@]3(C)[C@@]2(C)CC1)C(C)(C)O [Compound 25, alisol A 24-acetate] | 
5.94 ± 0.54 µM | 71.21 ± 1.56% | C=C(C)[C@@H](O)[C@@H](O)C[C@@H](C)C1=C2CC[C@H]3[C@@]4(C)CCC(=O)C(C)(C)[C@@H]4CC[C@]3(C)[C@@]2(C)CC1 [Compound 4, 11-deoxy-25-anhydro alisol E] | Inhibition type ([2]; from Lineweaver-Burk plots): mixed-type competitive; Ki ([2]; inhibition constant from slope plots): 12.6 µM
> 50 µM | 44.97 ± 0.95% | C=C(C)[C@H](O)[C@@H](O)C[C@@H](C)C1=C2C=C[C@H]3[C@@]4(C)CCC(=O)C(C)(C)[C@@H]4CC[C@]3(C)[C@@]2(C)CC1=O [Compound 12, alismanol B] | 
31.5 ± 1.4 µM |  | 25-ethoxy-16-oxo-11-anhydro alisol A [Compound 18] | 
> 50 µM | 18.64 ± 0.45% | CC(CC(O)C(=O)C(C)(C)O)C1=C2CC(O)C3C4(C)CCC(=O)C(C)(C)C4CC(O)C3(C)C2(C)CC1 (stereo not drawn) [Compound 10, 7α-hydroxy-24-oxo alisol A] | 
21.2 ± 0.5 µM |  | C=C(C)[C@H](O)[C@@H]1C[C@@H](C)C2=C3C[C@H](O)[C@H]4[C@@]5(C)CCC(=O)C(C)(C)[C@@H]5CC[C@]4(C)[C@@]3(C)C[C@@H]2O1 [Compound 16, 25-anhydro alisol F] | 
22.2 ± 1 µM |  | CC1(C)O[C@@H]1[C@@H](O)C[C@](C)(O)C1=C2C[C@H](O)[C@H]3[C@@]4(C)CCC(=O)C(C)(C)[C@@H]4CC[C@]3(C)[C@@]2(C)CC1=O [Compound 19, 20-hydroxy alisol C] | 
14.6 ± 1.1 µM | 71.6 ± 2.12% | C=C(C)[C@@H](O)[C@@H]1C[C@@H](C)[C@@]2(CC[C@@]3(C)C2=C[C@H](OC)[C@H]2[C@@]4(C)CCC(=O)C(C)(C)[C@@H]4CC[C@@]23C)O1 [Compound 6, alismanin F] | 
14.6 ± 1.6 µM |  | C=C(C)[C@@H]1OC(C)(C)O[C@H]1C[C@@H](C)C1=C2C[C@H](O)[C@H]3[C@@]4(C)CCC(=O)C(C)(C)[C@@H]4CC[C@]3(C)[C@@]2(C)CC1 [Compound 24, alisol G (23, 24)-diol acetonide] | 
